In ChEMBL document CHEMBL1156728, “Allele-specific inhibition of divergent protein tyrosine phosphatases with a single small molecule” (Bioorg Med Chem, 2008):

Assays:
[1] = Inhibition of CCPGCC hexapeptide insertion containing HePTP-211 mutant
[2] = Inhibition of CCPGCC hexapeptide insertion containing PTP-PEST-204 mutant
[3] = Inhibition of CCPGCC hexapeptide insertion containing FAP1-2364 mutant
[4] = Inhibition of CCPGCC hexapeptide insertion containing PTPalpha-406 mutant at 1 uM; conditions: TDE = time-dependent effect
[5] = Inhibition of CCPGCC hexapeptide insertion containing PTPH1-816 mutant
[6] = Inhibition of CCPGCC hexapeptide insertion containing PTP1B-186 mutant
[7] = Inhibition of CCPGCC hexapeptide insertion containing TCPTP-187 mutant
[8] = Inhibition of CCPGCC hexapeptide insertion containing PTPH1-816 mutant at 1 uM; conditions: TDE = time-dependent effect
[9] = Inhibition of CCPGCC hexapeptide insertion containing PTPalpha-406 mutant

O=C(O)c1ccccc1-c1c2ccc(=O)c([As]3SCCS3)c-2oc2c([As]3SCCS3)c(O)ccc12
Ki [1]: 89 nM | Ki [2]: 53 nM | Ki [3]: 370 nM | Activity [4]: tde | Ki [5]: 38 nM | Ki [6]: 46 nM | Ki [7]: 17 nM | Activity [8]: tde | Ki [9]: 39 nM
